# Measured values reported in ChEMBL document CHEMBL5360556, “An overview of compound properties, multiparameter optimization, and computational drug design methods for PARP-1 inhibitor drugs” (Eur J Med Chem, 2023).
# Key:
# [1] = biological target: T1, Poly [ADP-ribose] polymerase 1 (Homo sapiens, UniProt P09874); test: Inhibition of PARP1 (unknown origin) incubated for 60 mins by ELISA assay
# [2] = biological target: Voltage-gated inwardly rectifying potassium channel KCNH2 (Homo sapiens, UniProt Q12809); test: Inhibition of hERG; format: toxicity
# Sequence of Voltage-gated inwardly rectifying potassium channel KCNH2 (Q12809 whole entry): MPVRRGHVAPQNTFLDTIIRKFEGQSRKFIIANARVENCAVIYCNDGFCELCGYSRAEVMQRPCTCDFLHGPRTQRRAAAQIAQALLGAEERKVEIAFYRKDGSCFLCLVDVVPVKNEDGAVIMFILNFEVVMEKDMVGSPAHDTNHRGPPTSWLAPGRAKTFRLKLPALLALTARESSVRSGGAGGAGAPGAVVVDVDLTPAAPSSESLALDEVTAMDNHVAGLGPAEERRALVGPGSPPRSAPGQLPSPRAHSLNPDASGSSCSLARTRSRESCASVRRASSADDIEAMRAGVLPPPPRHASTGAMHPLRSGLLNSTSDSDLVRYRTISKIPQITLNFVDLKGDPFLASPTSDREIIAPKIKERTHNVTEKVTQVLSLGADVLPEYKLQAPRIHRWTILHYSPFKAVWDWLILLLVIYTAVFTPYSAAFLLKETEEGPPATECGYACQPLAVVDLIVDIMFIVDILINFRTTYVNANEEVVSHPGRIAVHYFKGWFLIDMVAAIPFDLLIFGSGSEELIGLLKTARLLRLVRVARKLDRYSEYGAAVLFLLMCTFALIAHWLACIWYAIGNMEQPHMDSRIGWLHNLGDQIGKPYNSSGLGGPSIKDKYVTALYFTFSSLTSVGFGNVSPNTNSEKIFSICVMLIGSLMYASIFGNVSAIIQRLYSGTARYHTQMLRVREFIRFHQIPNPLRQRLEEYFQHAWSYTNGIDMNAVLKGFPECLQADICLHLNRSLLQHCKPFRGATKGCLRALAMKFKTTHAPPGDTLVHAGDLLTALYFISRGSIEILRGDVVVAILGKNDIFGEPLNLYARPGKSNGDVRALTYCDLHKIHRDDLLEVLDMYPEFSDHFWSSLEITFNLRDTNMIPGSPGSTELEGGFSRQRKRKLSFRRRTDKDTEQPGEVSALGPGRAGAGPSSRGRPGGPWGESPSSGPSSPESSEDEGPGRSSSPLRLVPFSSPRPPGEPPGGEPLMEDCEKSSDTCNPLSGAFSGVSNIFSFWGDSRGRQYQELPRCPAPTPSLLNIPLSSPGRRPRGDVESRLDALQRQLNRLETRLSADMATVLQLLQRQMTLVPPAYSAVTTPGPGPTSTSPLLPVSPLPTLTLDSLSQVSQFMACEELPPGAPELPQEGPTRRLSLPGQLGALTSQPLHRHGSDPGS
# [3] = Lipophilicity, logP of compound; format: physicochemical; details: octanol/water
# [4] = Dissociation constant, pKa of the compound under basic condition; format: physicochemical
# [5] = Solubility of the compound; format: physicochemical
# [6] = Dissociation constant, pKa of the compound under acidic condition; format: physicochemical
# [7] = Lipophilicity, logD of compound at pH 7.4; format: physicochemical; details: buffer
# [8] = biological target: T1, Poly [ADP-ribose] polymerase 1; test: Inhibition of PARP1 (unknown origin) incubated for 60 mins by absorbance based analysis
# [9] = biological target: T1, Poly [ADP-ribose] polymerase 1; test: Inhibition of PARP1 (unknown origin) using Streptavidin-HRP as substrate incubated for 1 hr by absorbance based analysis
# [10] = biological target: T1, Poly [ADP-ribose] polymerase 1; test: Inhibition of PARP1 CD (unknown origin) by colorimetric assay
# [11] = biological target: T1, Poly [ADP-ribose] polymerase 1; test: Inhibition of PARP1 (unknown origin)
# T1 sequence (P09874 whole entry): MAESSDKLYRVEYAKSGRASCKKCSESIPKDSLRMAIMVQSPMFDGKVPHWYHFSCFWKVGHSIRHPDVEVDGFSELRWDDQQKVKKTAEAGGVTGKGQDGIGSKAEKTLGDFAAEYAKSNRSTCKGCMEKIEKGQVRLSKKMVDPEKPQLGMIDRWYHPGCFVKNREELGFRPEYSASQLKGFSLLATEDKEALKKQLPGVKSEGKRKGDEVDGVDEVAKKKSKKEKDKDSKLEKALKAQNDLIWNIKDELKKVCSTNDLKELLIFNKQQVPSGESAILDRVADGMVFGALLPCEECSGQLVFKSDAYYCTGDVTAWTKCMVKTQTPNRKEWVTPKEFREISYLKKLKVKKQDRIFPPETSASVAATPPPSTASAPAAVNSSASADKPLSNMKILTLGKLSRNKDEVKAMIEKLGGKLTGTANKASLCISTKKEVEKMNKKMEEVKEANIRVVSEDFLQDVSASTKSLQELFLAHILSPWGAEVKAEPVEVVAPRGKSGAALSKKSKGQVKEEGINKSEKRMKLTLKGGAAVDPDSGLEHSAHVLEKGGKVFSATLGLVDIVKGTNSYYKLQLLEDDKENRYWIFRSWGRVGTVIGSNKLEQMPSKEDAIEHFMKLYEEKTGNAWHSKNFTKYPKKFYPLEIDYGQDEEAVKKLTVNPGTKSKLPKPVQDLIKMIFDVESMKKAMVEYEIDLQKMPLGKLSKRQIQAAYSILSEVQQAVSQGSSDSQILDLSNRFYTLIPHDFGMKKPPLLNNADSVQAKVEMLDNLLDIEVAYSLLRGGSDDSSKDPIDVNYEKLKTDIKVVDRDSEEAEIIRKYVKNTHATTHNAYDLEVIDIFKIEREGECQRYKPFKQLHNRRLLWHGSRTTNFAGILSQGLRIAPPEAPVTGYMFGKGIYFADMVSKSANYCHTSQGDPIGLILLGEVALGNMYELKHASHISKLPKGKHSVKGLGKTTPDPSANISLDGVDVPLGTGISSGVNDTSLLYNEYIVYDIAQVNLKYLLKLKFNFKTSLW
smiles,measurement,setting,value
O=C(CSc1nc2sc3c(c2c(=O)[nH]1)CCC3)N(CCO)CCO,IC50,[1],560 nM
NC(=O)c1cccc2cn(-c3ccc([C@@H]4CCCNC4)cc3)nc12 [NIRAPARIB],IC50,[2],10000 nM
same,logP,[3],2.47
same,pKa,[4],10.1
same,solubility,[5],700 µg/mL
same,pKa,[6],14
same,logD,[7],-0.11
C[N+]12CCc3cc(O)c(O)cc3C1Cc1cc3c(cc12)OCO3 (configuration not stated),IC50,[8],960 nM
C[N+]1(C)CCc2cc(O)c(O)cc2[C@H]1Cc1ccc(O)c(O)c1,IC50,[8],1600 nM
Cn1ncnc1[C@H]1c2n[nH]c(=O)c3cc(F)cc(c23)N[C@@H]1c1ccc(F)cc1 [TALAZOPARIB],logP,[3],2.11
same,pKa,[4],1.66
same,solubility,[5],17 µg/mL
same,pKa,[6],9.48
same,logD,[7],2.11
O=C(NN1CCCC1)c1cc(Cc2n[nH]c(=O)c3cccnc23)ccc1F,IC50,[9],36.7 nM
Cc1cc(O)nn1S(=O)(=O)c1ccc2[nH]c(=O)c(=O)[nH]c2c1,IC50,[10],8.73 nM
O=C1CCc2cc(-c3ccccc3F)ccc2C2(CCCCC2)N1,IC50,[11],19 nM
O=C(c1cc(Cc2n[nH]c(=O)c3ccccc23)ccc1F)N1CCN(C(=O)C2CC2)CC1 [OLAPARIB],logP,[3],1.96
same,pKa,[4],0.9
same,pKa,[6],9.96
same,logD,[7],1.96
CCN(c1ccccc1)S(=O)(=O)c1ccc(NC(=O)C2CC(=O)c3cc(C)c(C)cc3O2)cc1 (configuration not stated),IC50,[1],63000 nM
CNCc1ccc(-c2[nH]c3cc(F)cc4c3c2CCNC4=O)cc1 [RUCAPARIB],IC50,[2],23000 nM
same,logP,[3],2.45
same,pKa,[4],9.32
same,solubility,[5],1000 µg/mL
same,pKa,[6],13.2
same,logD,[7],0.55
Oc1ccc(C2CNCc3c(O)cccc32)cc1O (racemic),IC50,[8],240 nM
CC1=CSC(NNS(=O)(=O)c2ccc3[nH]c(=O)c(=O)[nH]c3c2)N1C(=O)c1ccccc1 (configuration not stated),IC50,[10],6.35 nM
CC(=O)C1=C(C)N(C(=O)c2ccccc2)C(NNS(=O)(=O)c2ccc3[nH]c(=O)c(=O)[nH]c3c2)S1 (configuration not stated),IC50,[10],8.25 nM
CC1=C(NN)SC(NNS(=O)(=O)c2ccc3[nH]c(=O)c(=O)[nH]c3c2)N1C(=O)c1ccccc1 (configuration not stated),IC50,[10],2.31 nM
